Literature values in patent publication US20210251893A1, “Compositions and Methods for Treating Ocular Diseases” (Ocular Therapeutix, Inc., priority 2020, published 2021).

Legend:
FP prostanoid receptor = FP prostanoid receptor (Homo sapiens, UniProt P43088)
Chain of FP prostanoid receptor (P43088 whole entry): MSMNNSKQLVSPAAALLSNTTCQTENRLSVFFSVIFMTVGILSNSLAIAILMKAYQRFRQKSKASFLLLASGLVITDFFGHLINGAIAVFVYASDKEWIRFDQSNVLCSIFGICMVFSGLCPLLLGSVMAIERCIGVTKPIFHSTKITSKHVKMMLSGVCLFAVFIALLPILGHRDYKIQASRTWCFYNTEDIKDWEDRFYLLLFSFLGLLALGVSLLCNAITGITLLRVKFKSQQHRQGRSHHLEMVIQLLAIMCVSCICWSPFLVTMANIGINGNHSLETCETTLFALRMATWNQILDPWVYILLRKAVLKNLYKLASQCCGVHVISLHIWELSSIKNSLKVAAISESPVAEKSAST

In the case of `CC(C)OC(=O)CCC/C=C\C[C@@H]1[C@@H](/C=C/[C@@H](O)COc2cccc(C(F)(F)F)c2)[C@H](O)C[C@@H]1O` [Travoprost], the “Affinity for the prostaglandin FP receptor” value (FP prostanoid receptor) is given as “high affinity”.
In the case of `CC(C)OC(=O)CCC/C=C\C[C@@H]1[C@@H](CC[C@@H](O)CCc2ccccc2)[C@H](O)C[C@@H]1O` [Latanoprost], the “Solubility in aqueous solutions” value is listed as “relatively low solubility”.
For `O=C(O)CCC/C=C\C[C@@H]1[C@@H](/C=C/[C@@H](O)COc2cccc(C(F)(F)F)c2)[C@H](O)C[C@@H]1O` [free acid of travoprost], the “Potency and selectivity for the FP prostanoid receptor” value (FP prostanoid receptor; compared to latanoprost) is given as “higher potency and greater selectivity”.
